Data reported in article PMC8213057, “Targeting ALK2: An Open Science Approach to Developing Therapeutics for the Treatment of Diffuse Intrinsic Pontine Glioma” (Journal of Medicinal Chemistry, 2020).

What was measured:
FMS = target: T1, FMS (Homo sapiens, UniProt P07333); experiment: 375-member kinase panel; type: biochemical; settings: Run 1, Run 2; for % enzyme activity: 1 μM; for remaining activity at 1 µM: read-out: % enzyme activity, 1 μM
T1 construct: purchased Reaction Biology Corporation

MSSK1/STK23 = MSSK1/STK23 (Homo sapiens, UniProt Q9UPE1); settings: 1 μM; Run 1, Run 2
SLK/STK2 = SLK/STK2 (Homo sapiens, UniProt Q9H2G2); settings: 1 μM; Run 1, Run 2
YSK4/MAP3K19 = target: T2, YSK4/MAP3K19 (Homo sapiens, UniProt Q56UN5); settings: 1 μM; Run 1, Run 2
T2 sequence (Q56UN5 1-1328): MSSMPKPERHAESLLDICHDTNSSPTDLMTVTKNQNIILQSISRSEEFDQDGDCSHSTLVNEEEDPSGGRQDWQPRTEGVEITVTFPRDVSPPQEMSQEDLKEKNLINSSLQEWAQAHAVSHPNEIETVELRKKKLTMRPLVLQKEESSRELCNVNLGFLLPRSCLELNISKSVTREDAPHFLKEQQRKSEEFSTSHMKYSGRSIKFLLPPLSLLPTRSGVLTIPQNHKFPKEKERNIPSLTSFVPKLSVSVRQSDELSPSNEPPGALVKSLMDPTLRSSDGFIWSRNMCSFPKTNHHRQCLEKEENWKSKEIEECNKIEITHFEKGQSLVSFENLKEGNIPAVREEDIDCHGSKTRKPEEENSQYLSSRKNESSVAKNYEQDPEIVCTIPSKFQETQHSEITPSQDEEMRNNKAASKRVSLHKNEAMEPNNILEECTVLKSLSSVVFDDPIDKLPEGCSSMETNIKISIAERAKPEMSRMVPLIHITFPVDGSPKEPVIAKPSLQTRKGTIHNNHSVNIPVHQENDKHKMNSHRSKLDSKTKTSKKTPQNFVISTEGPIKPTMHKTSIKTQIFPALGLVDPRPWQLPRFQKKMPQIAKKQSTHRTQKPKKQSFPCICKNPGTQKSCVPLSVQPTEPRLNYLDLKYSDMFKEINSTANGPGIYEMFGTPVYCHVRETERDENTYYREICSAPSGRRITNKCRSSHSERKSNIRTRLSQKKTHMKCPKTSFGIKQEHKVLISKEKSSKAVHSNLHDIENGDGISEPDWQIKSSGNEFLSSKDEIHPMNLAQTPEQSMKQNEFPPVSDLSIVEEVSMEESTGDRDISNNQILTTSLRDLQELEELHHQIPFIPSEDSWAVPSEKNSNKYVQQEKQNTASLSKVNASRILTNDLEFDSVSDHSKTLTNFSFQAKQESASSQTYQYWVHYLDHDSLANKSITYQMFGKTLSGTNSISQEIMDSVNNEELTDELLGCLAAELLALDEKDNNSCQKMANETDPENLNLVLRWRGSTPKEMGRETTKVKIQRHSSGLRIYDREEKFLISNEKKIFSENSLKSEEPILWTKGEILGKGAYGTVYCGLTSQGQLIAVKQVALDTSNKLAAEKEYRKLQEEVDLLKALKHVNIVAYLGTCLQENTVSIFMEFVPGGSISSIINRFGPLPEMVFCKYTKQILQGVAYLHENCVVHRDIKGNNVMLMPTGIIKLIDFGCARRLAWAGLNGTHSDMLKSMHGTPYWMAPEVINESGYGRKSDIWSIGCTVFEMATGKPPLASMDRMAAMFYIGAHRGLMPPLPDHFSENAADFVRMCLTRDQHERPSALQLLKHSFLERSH

MYO3b = target: T3, MYO3b (Homo sapiens, UniProt Q8WXR4); experiment: biochemical; settings: read-out: % enzyme activity, 1 μM; Run 1, Run 2
T3 sequence (Q8WXR4 1-1341): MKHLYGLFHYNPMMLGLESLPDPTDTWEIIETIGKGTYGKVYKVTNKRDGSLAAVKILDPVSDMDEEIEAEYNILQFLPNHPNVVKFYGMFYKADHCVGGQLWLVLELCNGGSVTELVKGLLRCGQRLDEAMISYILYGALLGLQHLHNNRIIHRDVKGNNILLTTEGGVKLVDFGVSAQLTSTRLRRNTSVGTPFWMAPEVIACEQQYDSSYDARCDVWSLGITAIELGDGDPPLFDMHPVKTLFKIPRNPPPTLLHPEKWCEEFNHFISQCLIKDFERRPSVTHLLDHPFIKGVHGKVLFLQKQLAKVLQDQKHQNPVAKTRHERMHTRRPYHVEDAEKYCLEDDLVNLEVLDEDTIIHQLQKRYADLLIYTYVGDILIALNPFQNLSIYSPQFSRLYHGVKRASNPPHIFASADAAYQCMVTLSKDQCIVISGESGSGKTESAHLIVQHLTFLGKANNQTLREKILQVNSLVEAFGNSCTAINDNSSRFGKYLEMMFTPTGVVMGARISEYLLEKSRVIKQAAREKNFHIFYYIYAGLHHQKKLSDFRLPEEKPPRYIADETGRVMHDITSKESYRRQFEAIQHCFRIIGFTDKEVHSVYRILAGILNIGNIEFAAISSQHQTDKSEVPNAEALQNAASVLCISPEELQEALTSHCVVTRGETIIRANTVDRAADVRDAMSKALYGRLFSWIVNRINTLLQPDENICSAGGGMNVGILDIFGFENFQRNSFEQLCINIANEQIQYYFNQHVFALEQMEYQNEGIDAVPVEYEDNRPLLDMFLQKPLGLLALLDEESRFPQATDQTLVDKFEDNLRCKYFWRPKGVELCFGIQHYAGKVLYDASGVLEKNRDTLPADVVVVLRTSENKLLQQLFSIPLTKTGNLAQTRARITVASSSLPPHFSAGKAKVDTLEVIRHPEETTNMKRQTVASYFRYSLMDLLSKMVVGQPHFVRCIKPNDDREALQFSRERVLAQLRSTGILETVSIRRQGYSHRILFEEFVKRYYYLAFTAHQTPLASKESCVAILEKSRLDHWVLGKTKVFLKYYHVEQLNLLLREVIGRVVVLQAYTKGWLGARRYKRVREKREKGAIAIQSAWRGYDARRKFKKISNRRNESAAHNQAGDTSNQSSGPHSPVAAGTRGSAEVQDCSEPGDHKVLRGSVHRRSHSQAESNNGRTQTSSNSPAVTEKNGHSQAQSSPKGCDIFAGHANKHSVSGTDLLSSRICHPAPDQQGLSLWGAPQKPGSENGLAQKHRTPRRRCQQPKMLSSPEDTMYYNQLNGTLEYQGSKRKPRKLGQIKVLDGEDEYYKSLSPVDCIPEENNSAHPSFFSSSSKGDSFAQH

NEK6 = NEK6 (Homo sapiens, UniProt Q9HC98); experiment: biochemical; settings: read-out: % enzyme activity, 1 μM; Run 1, Run 2
Chain of NEK6 (Q9HC98 whole entry): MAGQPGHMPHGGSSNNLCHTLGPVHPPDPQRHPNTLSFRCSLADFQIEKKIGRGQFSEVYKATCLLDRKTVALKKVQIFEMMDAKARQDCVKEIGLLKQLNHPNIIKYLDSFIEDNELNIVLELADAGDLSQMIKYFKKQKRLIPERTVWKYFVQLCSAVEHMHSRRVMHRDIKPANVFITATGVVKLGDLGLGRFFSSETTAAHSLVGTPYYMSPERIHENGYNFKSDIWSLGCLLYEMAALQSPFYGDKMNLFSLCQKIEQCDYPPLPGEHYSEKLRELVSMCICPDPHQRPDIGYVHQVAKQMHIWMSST

T1 sequence (P07333 20-972): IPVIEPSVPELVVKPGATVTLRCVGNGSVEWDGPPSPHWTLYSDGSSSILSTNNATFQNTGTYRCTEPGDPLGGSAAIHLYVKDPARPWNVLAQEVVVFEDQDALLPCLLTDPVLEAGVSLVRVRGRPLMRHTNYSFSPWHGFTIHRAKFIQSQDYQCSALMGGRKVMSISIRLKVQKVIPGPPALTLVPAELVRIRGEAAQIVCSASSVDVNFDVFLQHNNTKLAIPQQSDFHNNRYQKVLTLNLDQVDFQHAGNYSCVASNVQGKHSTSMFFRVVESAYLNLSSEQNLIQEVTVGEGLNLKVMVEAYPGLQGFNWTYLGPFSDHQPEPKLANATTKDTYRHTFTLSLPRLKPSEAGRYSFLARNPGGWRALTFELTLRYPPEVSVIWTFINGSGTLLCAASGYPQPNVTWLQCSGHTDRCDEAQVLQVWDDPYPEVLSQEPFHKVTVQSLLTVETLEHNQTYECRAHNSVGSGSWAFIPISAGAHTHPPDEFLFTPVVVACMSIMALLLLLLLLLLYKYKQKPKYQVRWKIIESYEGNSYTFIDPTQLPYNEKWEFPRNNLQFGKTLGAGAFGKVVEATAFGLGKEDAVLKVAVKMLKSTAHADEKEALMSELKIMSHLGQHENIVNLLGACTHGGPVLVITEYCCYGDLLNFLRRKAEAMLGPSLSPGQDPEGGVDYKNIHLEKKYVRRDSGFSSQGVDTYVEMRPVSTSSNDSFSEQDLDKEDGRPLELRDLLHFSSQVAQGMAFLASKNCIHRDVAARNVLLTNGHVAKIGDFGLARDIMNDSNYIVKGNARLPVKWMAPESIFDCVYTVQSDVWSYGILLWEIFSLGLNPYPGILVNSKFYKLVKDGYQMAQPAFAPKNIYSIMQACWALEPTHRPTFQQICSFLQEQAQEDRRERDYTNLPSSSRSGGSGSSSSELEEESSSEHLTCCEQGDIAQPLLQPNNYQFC
Chain of MSSK1/STK23 (Q9UPE1 whole entry): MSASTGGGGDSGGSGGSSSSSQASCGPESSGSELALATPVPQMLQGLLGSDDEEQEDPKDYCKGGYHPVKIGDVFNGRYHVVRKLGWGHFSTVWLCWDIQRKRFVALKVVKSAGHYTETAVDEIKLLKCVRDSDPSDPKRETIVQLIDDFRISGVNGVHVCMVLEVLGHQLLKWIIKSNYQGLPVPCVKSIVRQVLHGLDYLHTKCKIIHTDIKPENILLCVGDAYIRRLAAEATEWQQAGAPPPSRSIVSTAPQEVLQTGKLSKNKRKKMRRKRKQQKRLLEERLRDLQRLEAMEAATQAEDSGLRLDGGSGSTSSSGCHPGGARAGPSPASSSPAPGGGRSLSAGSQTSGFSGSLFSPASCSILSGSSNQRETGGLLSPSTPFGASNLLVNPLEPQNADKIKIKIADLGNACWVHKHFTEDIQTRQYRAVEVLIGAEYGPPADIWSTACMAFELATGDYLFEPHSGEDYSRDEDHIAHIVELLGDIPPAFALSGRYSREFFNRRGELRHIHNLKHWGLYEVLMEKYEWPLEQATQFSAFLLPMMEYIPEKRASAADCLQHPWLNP
Chain of SLK/STK2 (Q9H2G2 whole entry): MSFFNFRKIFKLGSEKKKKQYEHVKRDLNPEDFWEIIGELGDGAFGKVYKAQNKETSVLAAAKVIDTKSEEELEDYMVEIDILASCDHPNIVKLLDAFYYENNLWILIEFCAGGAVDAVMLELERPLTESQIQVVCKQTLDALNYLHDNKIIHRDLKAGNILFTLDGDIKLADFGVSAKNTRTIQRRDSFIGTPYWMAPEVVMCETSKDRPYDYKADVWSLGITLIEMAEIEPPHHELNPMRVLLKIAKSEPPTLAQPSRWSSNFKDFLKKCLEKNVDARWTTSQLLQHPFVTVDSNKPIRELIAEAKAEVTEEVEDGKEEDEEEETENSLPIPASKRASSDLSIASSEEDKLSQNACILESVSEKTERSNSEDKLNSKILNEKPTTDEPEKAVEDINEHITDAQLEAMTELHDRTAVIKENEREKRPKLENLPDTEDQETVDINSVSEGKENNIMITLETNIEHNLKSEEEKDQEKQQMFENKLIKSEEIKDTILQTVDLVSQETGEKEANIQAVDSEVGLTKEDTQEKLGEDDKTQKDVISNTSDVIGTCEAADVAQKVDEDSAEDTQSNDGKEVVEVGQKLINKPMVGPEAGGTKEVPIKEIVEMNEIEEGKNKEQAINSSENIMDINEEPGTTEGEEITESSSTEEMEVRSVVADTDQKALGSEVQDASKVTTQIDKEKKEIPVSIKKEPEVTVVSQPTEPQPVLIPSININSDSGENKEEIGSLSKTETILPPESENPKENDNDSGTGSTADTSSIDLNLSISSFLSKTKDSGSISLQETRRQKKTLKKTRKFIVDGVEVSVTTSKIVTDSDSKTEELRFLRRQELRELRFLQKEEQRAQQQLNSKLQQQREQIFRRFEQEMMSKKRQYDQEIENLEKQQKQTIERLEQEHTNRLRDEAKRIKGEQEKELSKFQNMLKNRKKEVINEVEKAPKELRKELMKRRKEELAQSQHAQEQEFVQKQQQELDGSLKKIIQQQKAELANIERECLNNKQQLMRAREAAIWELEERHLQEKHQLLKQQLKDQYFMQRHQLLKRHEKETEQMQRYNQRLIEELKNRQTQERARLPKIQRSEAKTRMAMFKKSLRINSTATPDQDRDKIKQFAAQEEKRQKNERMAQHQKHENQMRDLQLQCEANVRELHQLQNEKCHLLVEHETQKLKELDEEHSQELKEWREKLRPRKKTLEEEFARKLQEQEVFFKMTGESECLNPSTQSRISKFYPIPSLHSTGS

**Q.** What does the source list for `COc1cc(-c2cncc(-c3ccc(N4CCN(C)CC4)cc3)c2C)cc(F)c1C(N)=O` [Compound 26a, 2-Fluoro-6-methoxy-4-(4-methyl-5-(4-(4-methylpiperazin-1-yl)phenyl)pyridin-3-yl)benzamide]?
**A.** % enzyme activity (FMS): 75.66%; remaining activity at 1 µM (FMS): 82.2%; % enzyme activity (MSSK1/STK23): 98.71%; % enzyme activity (SLK/STK2): 96.16%; % enzyme activity (YSK4/MAP3K19): 97.39%; remaining activity at 1 µM (MYO3b): 81.6%; remaining activity at 1 µM (NEK6): 99.3%

**Q.** How did the “% enzyme activity” value (FMS) turn out when `COc1cc(-c2cncc(-c3ccc(N4C[C@@H](C)N(C)[C@@H](C)C4)cc3)c2C)cc(F)c1C(N)=O` [Compound 26c, 2-Fluoro-6-methoxy-4-(4-methyl-5-(4-((3R,5S)-3,4,5-trimethylpiperazin-1-yl)phenyl)pyridin-3-yl)benzamide] was run?
**A.** 78.83%

**Q.** What about the remaining activity at 1 µM (FMS) of the same compound?
**A.** 79.5%

**Q.** What about the “% enzyme activity” value (MSSK1/STK23) of the same compound?
**A.** 99.23%

**Q.** And the “% enzyme activity” value (SLK/STK2)?
**A.** 100.64%

**Q.** What about the “% enzyme activity” value (YSK4/MAP3K19) of the same compound?
**A.** 96.61%

**Q.** What about the remaining activity at 1 µM (MYO3b) of the same compound?
**A.** 86.5%

**Q.** What about the remaining activity at 1 µM (NEK6) of the same compound?
**A.** 104%
